The term IC50 denotes the concentration that inhibits the measured activity by half. A high value points to lower potency.

We go through two compounds from PMC9181982, “Biphenyl Ether Analogs Containing Pomalidomide as Small-Molecule Inhibitors of the Programmed Cell Death-1/Programmed Cell Death-Ligand 1 Interaction” (Molecules, 2022).

In test [1] the target is T1, PD-L1 in MDA-MB-231 cells (Homo sapiens, UniProt Q9NZQ7).
T1 construct: host or cells: MDA-MB-231
The test is described as follows: Western blot of PD-L1 expression in MDA-MB-231 cells. The test is classed as cell-based. As to conditions: MDA-MB-231 cells treated for 6 or 24 h. How it is done: The cell lysates were prepared with a RIPA buffer (Sigma-Aldrich) containing Protease Inhibitor Cocktail (Sigma-Aldrich, St. Louis, MO, USA) and separated by 12% SDS-PAGE (TGX™ FastCast™ Acrylamide Kit, Bio-Rad, Hercules, CA, USA). The proteins were transferred to a PVDF membrane (Merck Millipore, Burlington, MA, USA) using a Mini Trans-Blot® Cell system (Bio-Rad, Hercules, CA, USA). The membranes were incubated with 4% (m/v) bovine serum albumin (BioShop, Burlington, Ontario, Canada) in a TBS buffer containing 0.1% (v/v) Nonidet P-40 (BioShop, Burlington, Ontario, Canada) at RT for 1 h. Then, the membranes were incubated with a specific primary antibody at 4 °C overnight. Following three washes in TBS-N, a secondary horseradish peroxidase (HRP)-conjugated antibody was applied for 1 h at RT. […]
Figure 2 Bioactivity of the indicated compounds. (A,B) The activity was monitored with a cell-based immune checkpoint blockade (ICB) assay. […] The cells were co-cultured for 6 h and the luminescence signal was measured following the addition of the Bio-Glo substrate. The graphs show fold induction calculated versus either DMSO-treated (for small molecules) or untreated (for durvalumab) control (ctrl) cells. […]
For orientation: A western blot detects proteins with antibodies after separation by electrophoresis.

The target of test [2] is T2, PD-L1 protein (Homo sapiens, UniProt Q9NZQ7).
T2 construct: PD-L1 gene (amino acids 18–239); made in house; host or cells: E. coli BL21
The test is described as follows: 1H NMR binding analysis, PD-L1 protein titrated with ligand. As to conditions: for Protein precipitation during NMR titration: 1H NMR titration, compound 6 at protein–ligand ratio 1:10; for Binding to PD-L1 by 1H NMR titration: PBS pH 7.4, 300 K, protein–ligand ratios up to 1:10. The procedure: Apart from the HTRF assay, we performed the NMR [33, 34] binding analysis by recording the ^1H spectrum of the PD-L1 protein titrated with compound 4 (Figure 1).
The E. coli strain BL21 was transformed with a pET-21b plasmid carrying the PD-L1 gene (amino acids 18–239). The bacteria were cultured in LB at 37 °C until OD600nm of 0, 6 when the recombinant protein production was induced with 1 mM IPTG. The protein production continued overnight. The inclusion bodies were collected by centrifugation, washed twice with 50 mM Tris HCl, pH 8.0, containing 200 mM NaCl, 10 mM EDTA, 10 mM 2-mercaptoethanol, and 0.5% Triton X-100, followed by a single wash with the same buffer but with no Triton X-100. The washed inclusion bodies were resuspended overnight in 50 mM Tris HCl, pH 8.0, 6 M GuHCl, 200 mM NaCl, and 10 mM 2-mercaptoethanol and clarified with centrifugation. Refolding of PD-L1 was performed by dropwise dilution into 0.1 M Tris HCl, pH 8.0, containing 1 M L-arginine hydrochloride, 0.25 mM oxidized glutathione, and 0.25 mM reduced glutathione. The refolded protein was dialyzed three times against 10 mM Tris HCl, pH 8.0, containing 20 mM NaCl and purified by size exclusion chromatography using Superdex 75 and a dialysis buffer. The quality of the refolded protein was evaluated by SDS-PAGE and NMR.
NMR spectra were recorded in PBS, pH 7.4, containing 10% (v/v) of D2O added to the samples to provide the lock signal. Water suppression was carried out using the WATERGATE sequence. All the spectra were recorded at 300 K using a Bruker Avance 600 MHz spectrometer with the Cryo-Platform. The NMR spectrum was recorded at three different ligand/protein ratios from 0 to 10. The samples were prepared by adding small amounts of a 50 mM ligand stock solution in DMSO to the protein solution (0.20 mL) of the PD-L1 fragment at a concentration of 0.14 mM. The acquisition parameters for each spectrum were as follows: size of FID32768, number of scans: 32. The spectra were visualized using TopSpin 4.0.2. (Bruker, Billerica, MA, USA)

Test [3] has as its target T3, PD-1/PD-L1 complex (Homo sapiens, UniProt Q9NZQ7).
T3 construct: purchased Cis-Bio
The test is described as follows: HTRF (homogeneous time-resolved fluorescence) PD-1/PD-L1 binding assay (Cis-Bio). As to conditions: for inhibition at 0.5 µM: 0.5 µM ligand, read-out: HTRF: Percentage of the Dissociated PD-1/PD-L1 Complex, 0.5 µM Ligand Conc.; for inhibition at 0.5 µM / inhibition at 5 µM: 5 nM hPD-L1, 50 nM hPD-1; for inhibition at 5 µM: 5 µM ligand, read-out: HTRF: Percentage of the Dissociated PD-1/PD-L1 Complex, 5 µM Ligand Conc.; for IC50: six ligand concentrations, two dilution series. The procedure: To validate the activity toward PD-L1 of our compounds, we carried out an HTRF (homogeneous time-resolved fluorescence) experiment at two concentrations of the ligand (5 µM and 0.5 µM) (Table 1).
HTRF was carried out using a certified Cis-Bio assay according to the manufacturer’s guidelines. The experiments were carried out at 5 nM of h-L1 and 50 nM of hPD-1 in the final formulation at the 20 µL final volume in the well. To determine the half maximal inhibitory concentrations (IC50) of the tested compounds, the measurements were carried out on two individual dilution series unless stated otherwise. After mixing all the components according to the Cis-Bio protocol, the plate was left for 2 h incubation at room temperature followed by the TR-FRET measurement on a Tecan Spark 20M. […] The collected data was background-subtracted from the negative control, normalized on the positive control, averaged, and fitted with the normalized Hill’s equation to determine the IC50 value using Mathematica 12 (Princeton, NJ, USA).
(TR-FRET usually uses a lanthanide donor and a delayed reading to cut background.)

Entries after “also recorded” stand apart in the source; their conditions may differ.

T2 sequence (Q9NZQ7 18-239): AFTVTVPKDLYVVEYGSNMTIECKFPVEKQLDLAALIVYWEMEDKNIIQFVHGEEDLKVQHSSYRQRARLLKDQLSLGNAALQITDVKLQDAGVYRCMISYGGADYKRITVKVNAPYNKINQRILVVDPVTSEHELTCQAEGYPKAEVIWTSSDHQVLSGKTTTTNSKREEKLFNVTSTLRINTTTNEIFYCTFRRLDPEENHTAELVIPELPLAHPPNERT
T1 sequence (Q9NZQ7 19-290): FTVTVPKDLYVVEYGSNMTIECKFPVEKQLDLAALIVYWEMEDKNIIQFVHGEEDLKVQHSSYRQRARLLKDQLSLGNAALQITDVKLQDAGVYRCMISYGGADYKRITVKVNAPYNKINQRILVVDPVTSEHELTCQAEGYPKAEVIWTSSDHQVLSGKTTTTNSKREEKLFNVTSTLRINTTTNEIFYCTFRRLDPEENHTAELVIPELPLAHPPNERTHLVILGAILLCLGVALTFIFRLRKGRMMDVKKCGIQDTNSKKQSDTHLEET
T3 sequence (Q9NZQ7 19-238 limits assumed, one chain of several): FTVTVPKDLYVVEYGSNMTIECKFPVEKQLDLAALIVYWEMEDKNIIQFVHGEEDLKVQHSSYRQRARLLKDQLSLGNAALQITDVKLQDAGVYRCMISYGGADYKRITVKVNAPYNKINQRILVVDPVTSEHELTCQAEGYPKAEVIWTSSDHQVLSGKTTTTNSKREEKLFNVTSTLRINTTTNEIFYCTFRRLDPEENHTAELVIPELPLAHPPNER

With `COc1nc(OCc2cccc(-c3ccccc3)c2C)ccc1CNCC1CCN(CC(=O)Nc2cccc3c2C(=O)N(C2CCC(=O)NC2=O)C3=O)CC1` (stereo not drawn) [compound 4, N-(2-(2,6-dioxopiperidin-3-yl)-1,3-dioxoisoindolin-4-yl)-2-(4-((((2-methoxy-6-((2-methyl-[1,1′-biphenyl]-3-yl)methoxy)pyridin-3-yl)methyl)amino)methyl)piperidin-1-yl)acetamide], the “Downregulation of PD-L1 expression (Western blot)” value in test [1] is recorded as “not related to the downregulation of PD-L1 expression; also recorded: unrelated to the downregulation of PD-L1 expression”. Further, in test [2], the “Protein precipitation during NMR titration” value is given as “not observed” and the “Binding to PD-L1 by 1H NMR titration” value was “bind to the PD-L1 protein”. Also, in test [3], the inhibition at 0.5 µM is 18.2%, the inhibition at 5 µM was 88.8% and the IC50 stood at 1320 ± 40 nM.

On to `COc1nc(OCc2cccc(-c3ccccc3)c2C)ccc1CNCCCNc1cccc2c1C(=O)N(C1CCC(=O)NC1=O)C2=O` (stereo not drawn) [compound 5, 2-(2,6-dioxopiperidin-3-yl)-4-((3-(((2-methoxy-6-((2-methyl-[1,1′-biphenyl]-3-yl)methoxy)pyridin-3-yl)methyl)amino)propyl)amino)isoindoline-1,3-dione], for which, in test [1], the “Downregulation of PD-L1 expression (Western blot)” value is “not related to the downregulation of PD-L1 expression; also recorded: unrelated to the downregulation of PD-L1 expression”. In test [2], the “Protein precipitation during NMR titration” value was “not observed” and the “Binding to PD-L1 by 1H NMR titration” value is given as “bind to the PD-L1 protein”. In addition, in test [3], the inhibition at 0.5 µM is 66.3%, the inhibition at 5 µM worked out at 100% and the IC50 amounted to 640 ± 20 nM.
